Structures can show the parent of a compound that is named as a salt.

The target of series [1] is T1, sickle hemoglobin (HbS) (Homo sapiens, UniProt P68871+P69905, E7V).
T1 construct: from tissue
The experiment in a line: Solubility assay (Csat assay): solubility of deoxygenated sickle hemoglobin in the presence of drug. The series is classed as biochemical. As for the experimental part: One major assay for evaluating antisickling agents involves measuring their effect on increasing the concentration at which sickle hemoglobin forms a gel. This is called the solubility or Csat assay.
The solubility assay (Csat assay) measures the ability of a compound to increase solubility of sickle hemoglobin (HbS).
In order to confirm the effectiveness of these compounds in reducing the effect of sickle cell anemia, tests were performed. The materials were tested according to the assay (Csat) developed by Hofrichter et al. (J. Hofrichter, P.D. Ross and W. A. Eaton Proc. Natl. Acad. Sci. USA, 73 30-35, 1976). This assay involves deoxygenation of concentrated sickle hemoglobin with dithionite in the presence of different concentrations of the drugs being tested Samples were then sealed in quartz epr tubes under anaerobic conditions and spun at about 150,000 × g for about 21/2 hours at about 35° C. in an ultracentrifuge. This procedure pellets the polymerized HbS (sickle hemoglobin) to the bottom of the tubes and the supernatant (soluble HbS) was measured in the laboratory as the cyanmethemoglobin derivative. […] Activity is reported as a ratio of the HbS solubility with the particular drug to HbS solubility with no drug i.e. control. The higher the ratio the greater degree of activity of the drug. The numbers in parenthesis are % increase in the solubility of HbS; again the higher the number, the greater the activity of the drug. The results ofthe compound of Example 9, is shown as a representative example of the compounds of this invention.

A short description of series [2]: Tests of transport across erythrocyte membranes. The class given is in vitro ADME, human. To be noted: red blood cell membrane.
Series [3] concerns HbS. Briefly: Chromatographic separation: tight covalent binding between HbS and the agent. More on the design: species or system human.

`C=C(CC)C(=O)c1ccc(OCC(=O)NCC(=O)O)c(Cl)c1Cl` [Example 9, N-{[2,3-Dichloro-4-(2-methylenebutyryl)phenoxy]-acetyl}glycine]: the activation at 3000 µM in series [1] (3 mM, read-out: % increase in Solubility (of HbS)) came to 27%. For the same compound, the fold induction at 3000 µM in series [1] (3 mM, read-out: Ratio of the HbS Solubility with the Drug Compared to HbS Solubility Without Drug) was 1.11. Also, the activation at 5000 µM in series [1] (5 mM, read-out: % increase in Solubility (of HbS)) turned out to be 36%. Further, the fold induction at 5000 µM in series [1] (5 mM, read-out: Ratio of the HbS Solubility with the Drug Compared to HbS Solubility Without Drug) stood at 1.15. Besides, the activation at 7000 µM in series [1] (7 mM, read-out: % increase in Solubility (of HbS)) was 56%. The fold induction at 7000 µM in series [1] (7 mM, read-out: Ratio of the HbS Solubility with the Drug Compared to HbS Solubility Without Drug) stood at 1.22. Besides, in series [1] (9 mM, read-out: % increase in Solubility (of HbS)), the activation at 9000 µM came to 82%. The fold induction at 9000 µM in series [1] (9 mM, read-out: Ratio of the HbS Solubility with the Drug Compared to HbS Solubility Without Drug) amounted to 1.33.
In the case of `C=C(CC)C(=O)c1ccc(OCC(=O)NCC(=O)O)c(Cl)c1Cl` [sodium salt of N-{([2,3-dichloro-4-(2-methylenebutyryl)-phenoxy]acetyl)}glycine], the “solubility ratio compared with other antisickling agents (in words)” value in series [1] (low concentrations (5 mM), versus dichlorobenzyloxyacetic and p-bromobenzyloxyacetic acids) is “higher solubility ratio than other antisickling agents, such as, dichlorobenzyloxyacetic and p-bromobenzyloxyacetic acids”. Moreover, the “transport across erythrocyte membranes (in words)” value in series [2] was “confirmed the ability of the agent to cross the red blood cell membrane and react with hemoglobin”. For the same compound, the “covalent binding between the HbS and the therapeutic agent (in words)” value in series [3] was “desired tight covalent binding between the HbS and the therapeutic agent had occurred”.

(Values after patent US4699926A, “Compounds useful in treating sickle cell anemia” (Merck & Co., Inc., priority 1986, dated 1987).)
